Legend:
HT-29 [1] = experiment: Antiproliferative activity against human HT-29 cells overexpressing NQO1 assessed as inhibition of cell growth preincubated with NQO1 inhibitor, dicoumarol for 30 mins followed by compound addition and measured after 72 hrs by MTT assay; format: functional, cell-based
[2] = biological target: NAD(P)H dehydrogenase [quinone] 1 (Homo sapiens) (UniProt P15559); experiment: Substrate activity at lyophilized human NQO1 assessed as compound decomposition measured after 60 hrs by HPLC analysis
NAD(P)H dehydrogenase [quinone] 1 (Homo sapiens), sequence (P15559 whole entry): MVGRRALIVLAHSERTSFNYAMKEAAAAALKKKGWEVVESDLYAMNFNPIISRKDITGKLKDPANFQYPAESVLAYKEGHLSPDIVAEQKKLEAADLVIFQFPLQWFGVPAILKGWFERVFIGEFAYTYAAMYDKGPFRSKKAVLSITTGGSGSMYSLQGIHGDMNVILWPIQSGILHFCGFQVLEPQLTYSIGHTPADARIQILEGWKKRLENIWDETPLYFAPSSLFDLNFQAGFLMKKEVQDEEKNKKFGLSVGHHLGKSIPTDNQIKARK

[3] = Stability of compound in TRIS buffer at pH 7.4 assessed as compound remaining measured after 60 hrs by HPLC analysis; format: physicochemical; conditions: read-out: Stability
HT-29 [4] = experiment: Induction of apoptosis in human HT-29 cells assessed as early apoptotic cells at 1 uM incubated for 48 hrs by Annexin V-FITC/PI staining based flow cytometry analysis (Rvb= 2.41%); format: functional
HT-29 [5] = experiment: Induction of apoptosis in human HT-29 cells assessed as late apoptotic cells at 1 uM incubated for 48 hrs by Annexin V-FITC/PI staining based flow cytometry analysis (Rvb= 1.04%); format: functional
HT-29 [6] = experiment: Induction of apoptosis in human HT-29 cells assessed as early apoptotic cells at 2 uM incubated for 48 hrs by Annexin V-FITC/PI staining based flow cytometry analysis (Rvb= 2.41%); format: functional
HT-29 [7] = experiment: Induction of apoptosis in human HT-29 cells assessed as viable cells at 4 uM incubated for 48 hrs by Annexin V-FITC/PI staining based flow cytometry analysis (Rvb= 96.54%); format: functional; conditions: read-out: Activity
HT-29 [8] = experiment: Induction of apoptosis in human HT-29 cells assessed as early apoptotic cells at 4 uM incubated for 48 hrs by Annexin V-FITC/PI staining based flow cytometry analysis (Rvb= 2.41%); format: functional
HT-29 [9] = experiment: Induction of apoptosis in human HT-29 cells assessed as late apoptotic cells at 4 uM incubated for 48 hrs by Annexin V-FITC/PI staining based flow cytometry analysis (Rvb= 1.04%); format: functional
HT-29 [10] = experiment: Induction of cell cycle arrest in human HT-29 cells assessed as accumulation of cells at S phase at 1 uM incubated for 48 hrs by RNaeA/propidium iodide based flow cytometry analysis (reference value: 23.06 %); format: functional
HT-29 [11] = experiment: Induction of apoptosis in human HT-29 cells assessed as upregulation of caspase-3 protein expression incubated for 48 hrs by Western blot analysis; format: functional, cell-based; conditions: dose 1-4 µM, DDE = dose-dependent effect
[12] = Toxicity in […] xenografted with human HT-29 cells overexpressing NQO-1 assessed as reduction in body weight at 30 mg/kg, ip administered for 21 days and measured every 2 days; format: organism-based; conditions: in vivo, 504 h, time 21 day
HT-29 [13] = experiment: Induction of mitochondrial membrane potential loss in human HT-29 cells assessed as healthy cells at 4 uM incubated for 48 hrs by JC-1 staining based flow cytometry analysis (reference value: 93.4 %); format: functional

SMILES: C=C(C)[C@@H]1CC[C@]2(C(=O)OCCOC(=O)CCC(=O)OCc3cn(C)c4c3C(=O)C(OC)=CC4=O)CC[C@]3(C)[C@H](CC[C@@H]4[C@@]5(C)CC[C@H](O)[C@@](C)(CO)[C@@H]5CC[C@]43C)[C@@H]12
- IC50 (HT-29 [1]): 9.22 µM
- Activity [2]: 100%
- remaining at 60 h [3]: 80%
- Activity (HT-29 [4]): 12.54%
- Activity (HT-29 [5]): 9.81%
- Activity (HT-29 [6]): 22.49%
- viability at 4 µM (HT-29 [7]): 38.4%
- Activity (HT-29 [8]): 32.28%
- Activity (HT-29 [9]): 22.58%
- Activity (HT-29 [10]): 23.02%
- Activity (HT-29 [11]): Dde
- Activity [12]: Non-Toxic
- Activity (HT-29 [13]): 55.52%

From ChEMBL document CHEMBL5113483, “Design and synthesis of NAD(P)H: Quinone oxidoreductase (NQO1)-activated prodrugs of 23-hydroxybetulinic acid with enhanced antitumor properties” (Eur J Med Chem, 2022)
